From ChEMBL document CHEMBL2146431, “Phosphoramidate derivatives of acyclovir: synthesis and antiviral activity in HIV-1 and HSV-1 models in vitro” (Bioorg Med Chem, 2012) come the findings set out here.

Calls of active or inactive are those of the source. The rule behind the calls is not given here.

Data set [1] is described as follows: Half life of the compound in KCl/HCl buffer at pH 2 assessed as acyclovir monophosphate formation by TLC analysis. It is filed as physicochemical.
In another data set the test system is Jurkat. The data set is described as follows: Cytotoxicity against human Jurkat cells up to 2000 uM after 48 hrs by trypan blue staining. It is filed as cell-based.
The nature of data set [2]: Chemical stability of the compound in KCl/HCl buffer at pH 2 assessed as monoamidate formation by TLC analysis. It is filed as physicochemical.
Data set [3] can be described thus: Half life of the compound in phosphate buffer at pH 7.4 assessed as acyclovir formation by TLC analysis. It is filed as physicochemical.
Data set [4] in a line: Half life of the compound in KCl/KOH buffer at pH 12 assessed as acyclovir formation by TLC analysis. It is filed as physicochemical.
Data set [5] deals with Human immunodeficiency virus 1. The data set is described as follows: Antiviral activity against HIV1 pseudovirus infected in Jurkat cells coexpressing GFP assessed as viral growth inhibition up to 100 uM incubated for 2 to 8 hrs prior to infection measured after 48 hrs by flow cytofluorimetric analysis. It is filed as functional, organism-based.
The nature of data set [6]: Half life of the compound in KCl/KOH buffer at pH 12 assessed as acyclovir and acyclovir monophosphate formation by TLC analysis. It is filed as physicochemical.
Data set [7] concerns Human immunodeficiency virus 1. The data set can be described thus: Antiviral activity against HIV1 pseudovirus infected in Jurkat cells coexpressing GFP assessed as viral growth inhibition incubated for 2 to 8 hrs prior to infection measured after 48 hrs by flow cytofluorimetric analysis. It is filed as functional, organism-based.
Data set [8] has as its system Human alphaherpesvirus 1. The data set can be described thus: Antiviral activity against acyclovir-resistant HSV1 L2 infected in Vero E6 cells assessed as inhibition of virus-induced cytopathic effect after 48 hrs. It is filed as functional, organism-based. The conditions noted are these: Human alphaherpesvirus 1, L2, Vero. A general note: Cytopathic effects are the visible damage that an infection or toxin causes in cultured cells.

Data set [9] is described as follows: Cytotoxicity against african green monkey Vero E6 cells after 72 hrs by trypan blue staining. It is filed as cell-based. The following applies: chlorocebus sabaeus.
The test system of data set [10] is Human alphaherpesvirus 1. The data set is described as follows: Antiviral activity against HSV1 L2 infected in Vero E6 cells assessed as inhibition of virus-induced cytopathic effect after 48 hrs. The following applies: Human alphaherpesvirus 1, L2, Vero. The data set is classed as functional, organism-based.
A short description of data set [11]: Selectivity ratio of CC50 for african green monkey Vero cells to EC50 for HSV1 L2. The following applies: read-out: Ratio CC50/EC50. It is filed as ADME, cell-based.
Data set [12] in a line: Selectivity ratio of CC50 for african green monkey Vero cells to EC50 for acyclovir-resistant HSV1 L2. The data set is classed as ADME, cell-based. The conditions noted are these: read-out: Ratio CC50/EC50.
In data set [13] the test system is Human alphaherpesvirus 1. The data set can be described thus: Resistance ratio of EC50 for acyclovir-resistant HSV1 L2 to EC50 for HSV1 L2. The data set is classed as functional.
In data set [14] the test system is Human immunodeficiency virus 1. The data set is described as follows: Antiviral activity against HIV1 pseudovirus infected in Jurkat cells coexpressing GFP assessed as viral growth inhibition at 20 uM incubated for 2 to 8 hrs prior to infection measured after 48 hrs by flow cytofluorimetric analysis. The following applies: Human immunodeficiency virus 1, Jurkat; read-out: GI. It is filed as functional.

Data set [15] deals with Human immunodeficiency virus 1. The data set is described as follows: Antiviral activity against HIV1 pseudovirus by cell-based assay. It is filed as functional, organism-based.

As for `Nc1nc2c(ncn2COCCOP(N)(N)=O)c(=O)[nH]1`, the t1/2 is 0.083 h in data set [1], 4 h in data set [3] and < 1 h in data set [4]. For the same compound, in the data set with Jurkat, the Activity result is reported as “Non-toxic”. For the same compound, the Stability result in [2] is on record as “Stable”.
`CCCCCCNP(=O)(O)OCCOCn1cnc2c(=O)[nH]c(N)nc21.N`: the figures for the t1/2 in data set [1], in [6] and in [3] were < 0.083 h, 48 h and > 120 h, respectively. Moreover, the “growth inhibition (GI)” value in [5] was “Active”. Moreover, the Activity entry with Jurkat is “Non-toxic”. Besides, the “growth inhibition (GI)” value in [7] is “Dose-dependent effect”.
Turning to `CN(C)CCNP(=O)(O)OCCOCn1cnc2c(=O)[nH]c(N)nc21.N`, the t1/2 in data set [1] was < 0.083 h; in [6], 48 h; in [3], > 120 h. In addition, in the data set on Jurkat, the Activity entry is on record as “Non-toxic”.
Take `CN(C)CCCNP(=O)(O)OCCOCn1cnc2c(=O)[nH]c(N)nc21.N`: the t1/2 in data set [1] is < 0.083 h; in [6], 48 h; in data set [3], > 120 h. Further, the Activity result in the data set with Jurkat is on record as “Non-toxic”.
Usually EC50 stands for the concentration that produces a half-maximal response. The term CC50 denotes the concentration giving 50% cytotoxicity. In the case of `Nc1nc2c(ncn2COCCOP(=O)(N2CCOCC2)N2CCOCC2)c(=O)[nH]1`, the half-maximal effective concentration (EC50) with Human alphaherpesvirus 1 [8] and in the data set with Human alphaherpesvirus 1 [10] was > 500 µM throughout. The t1/2 was 0.5 h in [1], > 120 h in [3] and 18 h in data set [4]. Moreover, the Activity result in the data set with Jurkat is “Non-toxic”. Further, the Stability result in data set [2] was “Stable”. The CC50 at 72 h in [9] was > 2000 µM.
With `CCCCCCNP(=O)(NCCCCCC)OCCOCn1cnc2c(=O)[nH]c(N)nc21`, the t1/2 is 0.083 h in data set [1], 5 h in data set [3] and 1 h in [4]. The Activity entry in the data set on Jurkat is recorded as “Non-toxic”. Also, the Stability result in data set [2] is “Stable”.
With `Nc1nc(=O)c2ncn(COCCOP(=O)(O)O)c2[nH]1`, the EC50 in the data set on Human alphaherpesvirus 1 [8] came out at 41 µM; in the data set with Human alphaherpesvirus 1 [10], 20 µM. The selectivity ratio in data set [11] was > 100; in data set [12], > 49. Moreover, the Activity entry in the data set with Jurkat is “Non-toxic”. Also, in [9], the CC50 at 72 h is > 2000 µM.
As to `CCCN(CCC)P(=O)(O)OCCOCn1cnc2c(=O)[nH]c(N)nc21.N`, the values for the concentration giving a half-maximal response (EC50) with Human alphaherpesvirus 1 [8] and with Human alphaherpesvirus 1 [10] were 37 µM and 15 µM, respectively. In addition, the values for the t1/2 in data set [1], in data set [6] and in data set [3] were < 0.083 h, 96 h and > 120 h, respectively. Also, the selectivity ratio was > 133 in [11] and > 54 in data set [12]. In data set [5], the “growth inhibition (GI)” value was “Active”. In the data set on Human alphaherpesvirus 1 [13], the “Ratio EC50” value is recorded as 2.5. For the same compound, the Activity entry in the data set with Jurkat is “Non-toxic”. Further, the “growth inhibition (GI)” value in data set [7] is “Dose-dependent effect”. Moreover, the CC50 at 72 h in [9] was > 2000 µM.
As to `N.Nc1nc2c(ncn2COCCOP(=O)(O)N2CCCC2)c(=O)[nH]1`, the t1/2 was < 0.083 h in [1], 96 h in [6] and > 120 h in [3]. The “growth inhibition (GI)” value in data set [5] was “Active”. Besides, the Activity entry in the data set with Jurkat was “Non-toxic”. For the same compound, the “growth inhibition (GI)” value in data set [7] was “Dose-dependent effect”.
For the compound `N.Nc1nc2c(ncn2COCCOP(=O)(O)N2CCOCC2)c(=O)[nH]1`, the EC50 in the data set with Human alphaherpesvirus 1 [8] was 25 µM; in the data set with Human alphaherpesvirus 1 [10], 9.7 µM. The results for the t1/2 in [1], in data set [6] and in data set [3] were < 0.083 h, > 120 h and > 120 h, respectively. In addition, the selectivity ratio in data set [11] was > 206; in data set [12], > 80. In addition, the inhibition of growth at 20 µM in data set [14] worked out at 50%. Moreover, the “growth inhibition (GI)” value in data set [5] is “Active”. Besides, the “Ratio EC50” value in the data set on Human alphaherpesvirus 1 [13] was determined as 2.5. In addition, the Activity result in the data set on Jurkat is “Non-toxic”. Further, the “growth inhibition (GI)” value in data set [7] is “Dose-dependent effect”. In addition, in data set [9], the 50% cytotoxic concentration (CC50) at 72 h was > 2000 µM.
With `N.Nc1nc2c(ncn2COCCOP(=O)(O)NCCN2CCOCC2)c(=O)[nH]1`, the values for the t1/2 in [1], in data set [6] and in data set [3] were < 0.083 h, 48 h and > 120 h, respectively. Further, the “growth inhibition (GI)” value in [5] was “Active”. For the same compound, in the data set with Jurkat, the Activity entry is on record as “Non-toxic”. For the same compound, the “growth inhibition (GI)” value in [7] is “Dose-dependent effect”.
On to `Nc1nc2c(ncn2COCCOP(=O)(N2CCCC2)N2CCCC2)c(=O)[nH]1`, for which the t1/2 in data set [1] amounted to 0.167 h; in [3], 18 h; in [4], 3 h. The Activity entry in the data set on Jurkat is “Non-toxic”. Further, the Stability entry in data set [2] is “Stable”.
For the compound `Cc1cn([C@H]2C[C@H](N=[N+]=[N-])[C@@H](CO)O2)c(=O)[nH]c1=O` [ZIDOVUDINE], the half-maximal effective concentration (EC50) in data set [7] (Human immunodeficiency virus 1, Jurkat) was determined as 0.09 µM; in data set [15], 0.003 µM.
Consider `Nc1nc2c(ncn2COCCO)c(=O)[nH]1` [ACYCLOVIR], for which the concentration for a half-maximal effect (EC50) with Human alphaherpesvirus 1 [8] came to 530 µM; with Human alphaherpesvirus 1 [10], 1.7 µM. Moreover, the selectivity ratio in data set [11] was > 1180; in [12] it was > 3.8. Also, the “growth inhibition (GI)” value in data set [5] was “Active”. For the same compound, the “growth inhibition (GI)” value in data set [7] was “Dose-dependent effect”. Besides, the CC50 at 72 h in data set [9] is > 2000 µM.
